Assay results taken from ChEMBL document CHEMBL3390836, “Mannich- and LedererManasse-based analogues of the natural product S-(+)-curcuphenol as cancer proliferation and migration inhibitors” (Medchemcomm, 2012).
pIC50: −log10 of the molar value.

Legend:
[1] = Cytotoxicity against human NCI-ADR-RES cells assessed as cell growth at 10 uM after 48 hrs by SRB assay relative to control; type: functional; details: read-out: Activity
[2] = test system: HT-29; experiment: Cytotoxicity against human HT-29 cells assessed as cell growth at 10 uM after 48 hrs by SRB assay relative to control; type: functional; details: HT-29, 48 h, read-out: Activity
[3] = Cytotoxicity against human HCT15 cells assessed as cell growth at 10 uM after 48 hrs by SRB assay relative to control; type: functional; details: HCT-15, 48 h, read-out: Activity
[4] = test system: NCI-H23; experiment: Cytotoxicity against human NCI-H23 cells assessed as cell growth at 10 uM after 48 hrs by SRB assay relative to control; type: functional; details: NCI-H23, 48 h, read-out: Activity
[5] = test system: SF-539; experiment: Cytotoxicity against human SF539 cells assessed as cell growth at 10 uM after 48 hrs by SRB assay relative to control; type: functional; details: SF-539, 48 h, read-out: Activity
[6] = test system: TK-10; experiment: Cytotoxicity against human TK10 cells assessed as cell growth at 10 uM after 48 hrs by SRB assay relative to control; type: functional; details: TK-10, 48 h, read-out: Activity
[7] = Cytotoxicity against human HCT116 cells assessed as cell growth at 10 uM after 48 hrs by SRB assay relative to control; type: functional; details: HCT-116, 48 h, read-out: Activity
[8] = test system: MCF7; experiment: Cytotoxicity against human MCF7 cells assessed as cell growth at 10 uM after 48 hrs by SRB assay relative to control; type: functional; details: MCF7, 48 h, read-out: Activity
[9] = Cytotoxicity against human Hs 578T cells assessed as cell growth at 10 uM after 48 hrs by SRB assay relative to control; type: functional; details: read-out: Activity
[10] = test system: SW-620; experiment: Cytotoxicity against human SW620 cells assessed as cell growth at 10 uM after 48 hrs by SRB assay relative to control; type: functional; details: SW-620, 48 h, read-out: Activity
[11] = test system: COLO 205; experiment: Cytotoxicity against human COLO205 cells assessed as cell growth at 10 uM after 48 hrs by SRB assay relative to control; type: functional; details: COLO 205, 48 h, read-out: Activity
[12] = Cytotoxicity against human OVCAR5 cells assessed as cell growth at 10 uM after 48 hrs by SRB assay relative to control; type: functional; details: OVCAR-5, 48 h, read-out: Activity
[13] = test system: MCF7; experiment: Growth inhibition of human MCF7 cells after 72 hrs by MTT assay; type: functional, cell-based; details: MCF7, 72 h
[14] = Cytotoxicity against human OVCAR4 cells assessed as cell growth at 10 uM after 48 hrs by SRB assay relative to control; type: functional; details: OVCAR-4, 48 h, read-out: Activity
[15] = test system: IGROV-1; experiment: Cytotoxicity against human IGROV1 cells assessed as cell growth at 10 uM after 48 hrs by SRB assay relative to control; type: functional; details: IGROV-1, 48 h, read-out: Activity
[16] = test system: MDA-MB-231; experiment: Cytotoxicity against human MDA-MB-231 cells assessed as growth inhibition after 24 hrs by MTT assay; type: cell-based; details: MDA-MB-231, 24 h
[17] = Cytotoxicity against human UACC62 cells assessed as cell growth at 10 uM after 48 hrs by SRB assay relative to control; type: functional; details: UACC-62, 48 h, read-out: Activity
[18] = test system: 786-0; experiment: Cytotoxicity against human 786-0 cells assessed as cell growth at 10 uM after 48 hrs by SRB assay relative to control; type: functional; details: 786-0, 48 h, read-out: Activity
[19] = test system: MOLT-4; experiment: Cytotoxicity against human MOLT4 cells assessed as cell growth at 10 uM after 48 hrs by SRB assay relative to control; type: functional; details: MOLT-4, 48 h, read-out: Activity
[20] = Cytotoxicity against human OVCAR8 cells assessed as cell growth at 10 uM after 48 hrs by SRB assay relative to control; type: functional; details: OVCAR-8, 48 h, read-out: Activity
[21] = Cytotoxicity against human OVCAR3 cells assessed as cell growth at 10 uM after 48 hrs by SRB assay relative to control; type: functional; details: OVCAR-3, 48 h, read-out: Activity
[22] = test system: SN12C; experiment: Cytotoxicity against human SN12C cells assessed as cell growth at 10 uM after 48 hrs by SRB assay relative to control; type: functional; details: read-out: Activity
[23] = test system: SF-295; experiment: Cytotoxicity against human SF295 cells assessed as cell growth at 10 uM after 48 hrs by SRB assay relative to control; type: functional; details: SF-295, 48 h, read-out: Activity
[24] = test system: SK-MEL-2; experiment: Cytotoxicity against human SK-MEL-2 cells assessed as cell growth at 10 uM after 48 hrs by SRB assay relative to control; type: functional; details: SK-MEL-2, 48 h, read-out: Activity
[25] = test system: HCC 2998; experiment: Cytotoxicity against human HCC2998 cells assessed as cell growth at 10 uM after 48 hrs by SRB assay relative to control; type: functional; details: HCC 2998, 48 h, read-out: Activity
[26] = test system: RXF 393; experiment: Cytotoxicity against human RXF393 cells assessed as cell growth at 10 uM after 48 hrs by SRB assay relative to control; type: functional; details: RXF 393, 48 h, read-out: Activity
[27] = Cytotoxicity against human UO31 cells assessed as cell growth at 10 uM after 48 hrs by SRB assay relative to control; type: functional; details: UO-31, 48 h, read-out: Activity
[28] = test system: NCI-H226; experiment: Cytotoxicity against human NCI-H226 cells assessed as cell growth at 10 uM after 48 hrs by SRB assay relative to control; type: functional; details: NCI-H226, 48 h, read-out: Activity
[29] = test system: MDA-MB-231; experiment: Cytotoxicity against human MDA-MB-231 cells assessed as cell growth at 10 uM after 48 hrs by SRB assay relative to control; type: functional; details: MDA-MB-231, 48 h, read-out: Activity
[30] = test system: HOP-62; experiment: Cytotoxicity against human HOP62 cells assessed as cell growth at 10 uM after 48 hrs by SRB assay relative to control; type: functional; details: HOP-62, 48 h, read-out: Activity
[31] = test system: SK-MEL-28; experiment: Cytotoxicity against human SK-MEL-28 cells assessed as cell growth at 10 uM after 48 hrs by SRB assay relative to control; type: functional; details: SK-MEL-28, 48 h, read-out: Activity
[32] = Cytotoxicity against human EKVX cells assessed as cell growth at 10 uM after 48 hrs by SRB assay relative to control; type: functional; details: read-out: Activity
[33] = test system: RPMI-8226; experiment: Cytotoxicity against human RPMI8226 cells assessed as cell growth at 10 uM after 48 hrs by SRB assay relative to control; type: functional; details: RPMI-8226, 48 h, read-out: Activity
[34] = test system: T47D; experiment: Cytotoxicity against human T47D cells assessed as cell growth at 10 uM after 48 hrs by SRB assay relative to control; type: functional; details: read-out: Activity
[35] = test system: ACHN; experiment: Cytotoxicity against human ACHN cells assessed as cell growth at 10 uM after 48 hrs by SRB assay relative to control; type: functional; details: read-out: Activity
[36] = test system: NCI-H460; experiment: Cytotoxicity against human NCI-H460 cells assessed as cell growth at 10 uM after 48 hrs by SRB assay relative to control; type: functional; details: NCI-H460, 48 h, read-out: Activity

| SMILES | growth at 10 µM [1] | growth at 10 µM [2] | growth at 10 µM [3] | growth at 10 µM [4] | growth at 10 µM [5] | growth at 10 µM [6] | growth at 10 µM [7] | growth at 10 µM [8] | growth at 10 µM [9] | growth at 10 µM [10] | growth at 10 µM [11] | growth at 10 µM [12] | pIC50 [13] | growth at 10 µM [14] | growth at 10 µM [15] | pIC50 [16] | growth at 10 µM [17] | growth at 10 µM [18] | growth at 10 µM [19] | growth at 10 µM [20] | further results |
| --- | --- | --- | --- | --- | --- | --- | --- | --- | --- | --- | --- | --- | --- | --- | --- | --- | --- | --- | --- | --- | --- |
| COc1ccc(CCNCc2c(C)ccc([C@@H](C)CCC=C(C)C)c2O)cc1OC | 83.4% | 48.9% | 92.2% | 74% | 88.9% | 90.1% | 58% | 85.1% | 89.6% | 84.9% | 67.9% | 96.6% | < 4.70 | 71% | 68.8% | < 4.70 | 84.9% | 80.4% | 68.2% | 80.4% | growth at 10 µM [21]: 90.1%; growth at 10 µM [22]: 87.1%; growth at 10 µM [23]: 87.9%; growth at 10 µM [24]: 99.9%; growth at 10 µM [25]: 15.7%; growth at 10 µM [26]: 80.8%; growth at 10 µM [27]: 42.6%; growth at 10 µM [28]: 78.3%; growth at 10 µM [29]: 87.7%; growth at 10 µM [30]: 89%; growth at 10 µM [31]: 104%; growth at 10 µM [32]: 82.3%; growth at 10 µM [33]: 55.8%; growth at 10 µM [34]: 69.8%; growth at 10 µM [35]: 87.1%; growth at 10 µM [36]: 83.1% |
| CC(C)=CCC[C@H](C)c1ccc(C)c(CO)c1O | 97.1% | 103% | 109% | 92.9% | 98.4% | 103% | 91.3% | 102% | 104% | 118% | 125% | 110% | < 4.70 | 90.7% | 107% | < 4.70 | 90.4% | 80.1% | 91.4% | 92.1% | growth at 10 µM [21]: 91.1%; growth at 10 µM [22]: 91.3%; growth at 10 µM [23]: 103%; growth at 10 µM [24]: 102%; growth at 10 µM [25]: 102%; growth at 10 µM [26]: 92.3%; growth at 10 µM [27]: 76.7%; growth at 10 µM [28]: 112%; growth at 10 µM [29]: 109%; growth at 10 µM [30]: 99.8%; growth at 10 µM [31]: 134%; growth at 10 µM [32]: 103%; growth at 10 µM [33]: 88.8%; growth at 10 µM [34]: 72.2%; growth at 10 µM [35]: 110%; growth at 10 µM [36]: 108% |
